Tested on: microbial load on the hands
Test: hand disinfectant experiment according to EN 1500
Format: in vivo
Details: EN 1500, six samples per product; reference 60% 2-propanol (vol/vol)
Source text: The state of the art for hand disinfectants is described by the test methods, in which an agent is examined in regard to its efficiency. Currently, all agents, which are to be approved for hygienic hand disinfection have to be examined according to standard EN1500. The EN 1500 uses as a microbicidal reference substance 60% 2-propanol (vol/vol) in water. […] In these cases, the effectiveness of alcoholic hand disinfectants with or without the addition of quaternary ammonium compounds is more or less the same. It has also been known that products are possible, which contain as an active agent about 4% of a quaternary ammonium compound or a guanidine and contain, apart from this compound, solubilizers like propylene glycol, butylene glycol and other polyalcohols, so that the products have a degreasing effect on the skin. Unfortunately, all of these products were effective only according to the new standards EN 1499, hand decontamination, which have to meet less stringent requirements than the EN 1500. Agents, which only have to meet the requirements of the EN1499 have to be better than soap in a comparative test. Whereas for passing the EN 1500, in general, a microbial reduction of 4.5 log increments (i.e., a 4.5 log reduction) is required, passing the EN 1499 in general requires 3 log increments (i.e., a 3 log reduction). This is only 3% of the reduction required by the EN 1500. […]

CC(C)O [60% 2-propanol (vol/vol), 2-propanol]
Reduction factor: 4.1-4.6

Reference: patent US20200170247A1, “HAND DISINFECTANTS” (priority 2014, published 2020)
